Values of other authors in US9446139B2, “Polymer-based compositions and conjugates of HIV entry inhibitors” (Nektar Therapeutics, priority 2004, dated 2016).

Legend:
[1] = 90-mg single subcutaneous dose (N=12)

Substance: enfuvirtide
- mean elimination half life [1]: 3.8 ± 0.6 h
- mean±SD apparent clearance [1]: 0.413 ± 0.0683 mL/min/kg
- mean duration of each ISR (human, in vivo): around 7 days
- patients reporting at least one instance of painful or troublesome local injection site reactions (ISR) (subcutaneous injection two times a day): 98%
